From patent US20110256121A1, “METHODS AND KITS FOR DIAGNOSING OR MONITORING AUTOIMMUNE AND CHRONIC INFLAMMATORY DISEASES” (THE REGENTS OF THE UNIVERSITY OF MICHIGAN, priority 2008, published 2011)
Read-outs that look alike come from different tables or passages of the source.

Key:
[1] = test system: T cell CD70 expression; test: CD70 expression on PHA-stimulated T cells by flow cytometry; format: cell-based, human; details: for CD70 expression on treated vs untreated PHA-stimulated T cells: unfractionated T cells, 3 days, dose-response for procainamide, PD98059, U0126
Description: Cells and cell culture. Peripheral blood mononuclear cells (PBMCs) were isolated by density-gradient centrifugation. T cells were then isolated by E-rosetting (See, e.g., Golbus et al., Clin Immunol Immunopathol 46, 129 (1988)). […] Where indicated, the cells were cultured in RPMI 1640/10% fetal calf serum (FCS) supplemented with interleukin-2 (IL-2) (See, e.g., Richardson et al., Clin Immunol Immunopathol 55, 368 (1990)), in round-bottomed 5-ml culture tubes (Falcon). Cells were stimulated with 1 μg/ml of PHA (Remel) for 16 hours, then cultured in 24-well plates at a density of 1×10^6 for an additional 72 hours in the presence of 2-deoxy-5-azaC or 5-azaC (Sigma-Aldrich), procainamide (Sigma-Aldrich), hydralazine (Sigma-Aldrich), or the MEK inhibitors U0126 (Promega) or PD98059 (Promega). In other studies, PHA-stimulated PBMCs were cultured in RPMI 1640/10% FCS and treated with indomethacin, chloroquine, hydrocortisone, and 6-mercaptopurine (6-MP) (all from Sigma-Aldrich). TT48E, a cloned, CD4+, tetanus toxoid-reactive human T cell line, was cultured as previously described (Cornacchia et al., J Immunol 140, 2197 (1988); Richardson et al., Arthritis Rheum 35, 647 (1992)).
Flow cytometric analysis. The following fluorochrome-conjugated monoclonal antibodies were obtained from BD PharMingen (San Diego, Calif.): FITC-conjugated anti-human CD70, CD2, or isotype-matched controls; phycoerythrin (PE)-conjugated anti-CD2, CD4, and CD8; and CyChromeconjugated anti-HLA-DR, CD2, and isotype controls. Staining and multicolor flow cytometric analysis were performed (See, e.g., Hale et al., Cell Immunol 220, 51 (2002)) using saturating concentrations of antibody.
The panel of inhibitors used included 5-azaC, an irreversible DNA methyltransferase inhibitor (See, e.g., Glover and Leyland-Jones, Cancer Treat Rep 71, 959 (1987)) procainamide, a competitive DNA methyltransferase inhibitor (See e.g., Scheinbart et al., J Rheumatol 18, 530 (1991)), and the ERK pathway inhibitors PD98059, U0126, and hydralazine.
Studies were performed examining the effects of the DNA methylation inhibitors on CD70 expression in CD4+ and CD8+ T cell subsets.

[2] = test system: CD70 mRNA; details: treated vs untreated T cells, real time RT-PCR
[3] = test system: CD70 promoter; test: Bisulfite sequencing of the CD70 promoter in CD4+ T cells; format: cell-based, human; details: anti-CD3 and anti-CD28 stimulated CD4+ T cells vs stimulated untreated controls
Description: (§1) In other studies, T cells were isolated by negative selection using magnetic beads and instructions provided by the manufacturer (Pan T cell Isolation Kit, Miltenyi), and the CD4+ or CD8+ subset was similarly isolated by magnetic cell sorting. Jurkat cells (E6-1) were cultured as previously described (See, e.g., Cornacchia et al., J Immunol 140:2197 (1998)). Purified human CD4+ T cells were first stimulated with plate bound anti-CD3 and soluble anti-CD28. Briefly, 24 well plates were coated with 300 μl of anti-CD3 (10 μg/ml in PBS—SouthernBiotech) 18 hours 4° C., washed, then 2×10^6 purified T cells were added to the wells in 2 ml RPMI 1640/10% FCS containing 2 μg/ml anti-CD28 (SouthernBiotech). The plates were incubated 37° C. in a humidified atmosphere containing 5% CO2 for 18-24 hours, then treated with 5 μm 5-azaC (Aldrich), 50 μm Pca (Sigma), 20 μm Hyd (Aldrich), 40 μm UO126 (Promega) or 25 μm PD98059 (Promega), and cultured for 3 additional days as described (See, e.g., Oelke et al., Arthritis Rheum 50:1850 (2004)).
Bisulfite sequencing. The putative CD70 promoter was identified using the published CD70 cDNA sequence and Tfsitescan software. Deoxycytosine (dC) and deoxymethylcytosine (d^mC) bases in the gene promoter and 5′ flanking sequences were identified by bisulfite treatment of purified DNA followed by nested PCR amplification of 3 sequential fragments to span the entire region. The primers were designed to avoid CG pairs and to account for the conversion of dC to dU by the bisulfite. EcoRI sites were added to the forward primers, and XbaI to the reverse, to facilitate cloning. The amplified fragments were then cloned into PBS+, and 5 clones sequenced for each fragment. The primers used were: […]
The effect of lupus and DNA methylation inhibitors on a regulatory element in the CD70 promoter was examined. DNA was isolated from the CD4+ T cells of 7 healthy individuals or 6 lupus patients, bisulfite treated, the region from −466-−515, containing 6 CG pairs was amplified by PCR, and 5 fragments sequenced from each individual. The average methylation status of the 6 CG pairs for healthy versus lupus individuals is shown (FIG. 8, NI and Lupus, respectively). CD4+ T cells from 5 individuals were also stimulated with PHA, treated with the irreversible DNA methyltransferase inhibitor 5-azacytidine (5-azaC), and the methylation status of the 6 CG pairs similarly analyzed from the 25 fragments sequenced (FIG. 8, 5-azaC). […] Results are presented as the mean±SEM of the average methylation of the 6 CG pairs, measured from the 10-35 determinations/group.
The effects of the DNA methylation inhibitors on the methylation status of this region were then compared. […] Again, 5 cloned fragments were sequenced from each control, for a total of 35 determinations per CG pair. […] FIG. 14 compares the average methylation for the 10 CG pairs (−515 to −423) in the T cells treated with DNA methylation inhibitors relative to stimulated, untreated controls.

[4] = test system: TT48E; details: 6 experiments
[5] = test system: CD70 mRNA; test: CD70 transcripts by real time RT-PCR in anti-CD3 + anti-CD28 stimulated CD4+ T cells; format: cell-based, human; details: 5 μm 5-azaC, 50 μm Pca, 20 μm Hyd, 40 μm U0126, 25 μm PD98059, 3 days
Description: as §1

| Structure (SMILES) | increase of CD70 MFI on CD4+ T cells ([1]; 1 μM 5-azaC, n=5, P=0.025) | CD70 expression on CD4+ T cells [1] | 5-azaC concentration producing the greatest effect on CD70 expression ([1]; range of 5-azaC concentrations, n=5) | CD70 expression on treated vs untreated PHA-stimulated T cells ([1]; 1 μM 5-azaC) | CD70 mRNA relative to beta-actin [2] | methylation of the 10 CG pairs between −515 and −423 of the CD70 promoter [3] | increase of CD70 expression on TT48E ([4]; 1 μM 5-azaC, 3 days, P=0.048) | CD70 transcripts relative to β-actin, treated vs untreated [5] | increase of CD70 MFI on CD4+ T cells ([1]; 40 μM U0126, n=4, P=0.039) | increase of CD70 MFI in T cells treated with U0126 (FIG. 2I) ([1]; U0126, P=0.085, stated in the CD8+ context) | increase of CD70 expression on TT48E ([4]; 40 μM U0126, 3 days, P=0.004) |
| --- | --- | --- | --- | --- | --- | --- | --- | --- | --- | --- | --- |
| Nc1ncn([C@@H]2O[C@H](CO)[C@@H](O)[C@H]2O)c(=O)n1 [5-azaC, 5-azacytidine] | 1.53±0.45 fold | increased CD70 expression on CD4+ T cells | 1 µM | small increase | increased the expression of CD70 mRNA | hypomethylated compared to controls | 1.69±0.33 fold | increase CD70 transcripts |  |  |  |
| N#CC(=C(/N)Sc1ccccc1N)/C(C#N)=C(\N)Sc1ccccc1N [U0126] |  | increased CD70 expression on CD4+ T cells |  | increase in CD70 expression with treatment | increased the expression of CD70 mRNA | appears to demethylate |  | increase CD70 transcripts | 3.20±0.44 fold | 2.83±0.95 fold | 1.87±0.37 fold |
